Experimental data from PubChem BioAssay (NCI).
Values joined by “and” are separate entries in the source; they are usually repeats but may differ in a detail not shown here. Equal values may be shown once.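 Where inhibition never reached the appropriate level, the endpoint shown equals the highest concentration tested. Otherwise, values were interpolated linearly from a five-concentration, 48-hour dose response in 96-well plates. Abbreviation: GI50, concentration required for 50% inhibition of growth. At the TGI there is no net growth.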

Key:
Assay in all cases: DTP human tumour cell line panel, 48 h
[1] = test system: K-562 leukemia
[2] = test system: M14 melanoma
[3] = test system: MALME-3M melanoma
[4] = test system: NCI-H460 lung
[5] = test system: OVCAR-3 ovarian
[6] = test system: SF-539 CNS
[7] = test system: SN12C renal
[8] = test system: MDA-N
[9] = test system: PC-3 prostate
[10] = test system: SR leukemia

| Structure (SMILES) | TGI [1] | TGI [2] [µM] | TGI [3] [µM] | TGI [4] | TGI [5] | TGI [6] | TGI [7] | TGI [8] [µM] | TGI [9] [µM] | TGI [10] [µM] | GI50 [1] [µM] | GI50 [3] [µM] | GI50 [4] [µM] | GI50 [5] [µM] | GI50 [9] [µM] | GI50 [6] [µM] | GI50 [7] [µM] | GI50 [10] [µM] |
| --- | --- | --- | --- | --- | --- | --- | --- | --- | --- | --- | --- | --- | --- | --- | --- | --- | --- | --- |
| COc1cc([C@@H]2c3cc4c(cc3[C@@H](NC(=O)c3ccc(C#N)cc3)C3COC(=O)[C@@H]32)OCO4)cc(OC)c1O (some centres not stated) | > 100 µM | 12.4 | 2.59 | 1.43 µM | 4.66 µM | 1.66 µM | 1.51 µM |  |  |  |  |  |  |  |  |  |  |  |
| NS(=O)(=O)c1nnc(NC(=O)N(c2ccccc2)c2ccccc2)s1 | > 100 µM | 35.3 | 62.5 |  | 69.7 µM | 34.7 µM | 40.8 µM | 88.3 | > 100 |  |  |  |  |  |  |  |  |  |
| CN(C)c1nc(Oc2nc(N(C)C)nc(N(C)C)n2)nc(N(C)C)n1 | > 100 µM | > 100 | > 100 | > 100 µM | > 100 µM | > 100 µM | > 100 µM |  |  | > 100 |  |  |  |  |  |  |  |  |
| COC(=O)CCC(NC(=S)N/N=C/c1cccs1)C(=O)OC (configuration not stated) | > 100 µM | > 100 | > 100 | > 100 µM | > 100 µM | > 100 µM | > 100 µM |  |  | > 100 |  |  |  |  |  |  |  |  |
| Cn1nc(-c2ccc(S(=O)(=O)/N=C(\NN)Nc3ccc(Cl)cc3)s2)cc1C(F)(F)F | 35.4 µM | 31.5 |  | 37.9 µM | 36.4 µM | 30 µM | 31.4 µM | 28 | 31.2 | 41.7 |  |  |  |  |  |  |  |  |
| Cc1cc([N+](=O)[O-])c(C)c2c1[nH]c1ccc(Cl)cc12 | > 100 µM | > 100 | > 100 | > 100 µM | > 100 µM | > 100 µM | > 100 µM |  |  | > 100 |  |  |  |  |  |  |  |  |
| O=c1cc(O)cc2n1CCC2 | > 100 µM | > 100 | > 100 | > 100 µM | > 100 µM | > 100 µM | > 100 µM |  |  |  |  |  |  |  |  |  |  |  |
| CC1CC(N2CCOCC2)=Nc2ccccc2N1C (configuration not stated) | > 100 µM | > 100 | > 100 | > 100 µM | > 100 µM | > 100 µM | > 100 µM | > 100 | > 100 |  |  |  |  |  |  |  |  |  |
| COC(=O)c1ccccc1C1CN=NC12Cc1c(ccc(C)c1C)C2=O (configuration not stated) | > 100 µM | > 100 | > 100 | > 100 µM | > 100 µM |  | > 100 µM | > 100 | > 100 |  |  |  |  |  |  |  |  |  |
| N#Cc1c(-c2ccc([N+](=O)[O-])cc2)cc(-c2ccc(Nc3ccnc4cc(Cl)ccc34)cc2)[nH]c1=O | > 100 µM | > 100 | > 100 | > 100 µM | > 100 µM | > 100 µM |  |  | > 100 | > 100 |  |  |  |  |  |  |  |  |
| N#CNC(N)=NCc1ccccc1 |  | > 100 | > 100 | > 100 µM | > 100 µM | > 100 µM | > 100 µM |  |  | > 100 |  |  |  |  |  |  |  |  |
| COCOc1ccc(C(=O)Oc2cccc3c2OC(C)(C)O3)c(OCOC)c1 | > 100 µM | > 100 |  | > 100 µM | > 100 µM | > 100 µM | > 100 µM | > 100 |  |  |  |  |  |  |  |  |  |  |
| O=C(c1ccco1)N(C(=O)N1CCCCC1)c1ccccc1 | > 100 µM | > 100 | > 100 |  | > 100 µM | > 100 µM | > 100 µM | > 100 | > 100 |  |  |  |  |  |  |  |  |  |
| Cc1ccc(-c2cc(-c3ccco3)c(C#N)c(=S)[nH]2)cc1 | > 100 µM | > 100 | > 100 | > 100 µM | > 100 µM |  | > 100 µM |  | > 100 | > 100 |  |  |  |  |  |  |  |  |
| CCCCCCCC(=O)OCC(COC(=O)C(C)(C)C)OC(=O)Cc1ccccc1 (configuration not stated) | > 100 µM | > 100 | > 100 | > 100 µM | > 100 µM |  | > 100 µM |  |  |  |  |  |  |  |  |  |  |  |
| COc1cc2ccc3c4cc(OC)c(OC)cc4c[n+](C)c3c2cc1O | > 100 µM | > 100 | > 100 | > 86.7 µM | > 100 µM | > 100 µM | 43 µM |  |  |  |  |  |  |  |  |  |  |  |
| Cn1c2ccccc2n2c3ncccc3c(=O)c(C#N)c12 | > 100 µM | > 100 | > 100 | > 40.7 µM | > 100 µM |  | > 100 µM |  | > 100 | > 100 |  |  |  |  |  |  |  |  |
| CN(O)C(=O)/C=C/c1ccc(OCc2cccc(Cl)c2)cc1 | > 100 µM | > 100 |  | 43.3 µM | > 100 µM | > 100 µM | 55.9 µM | > 100 | > 100 | 38.4 |  |  |  |  |  |  |  |  |
| COc1ccc2c(c1)c1c(n2CCN2CCCCC2)-c2cccc(OC)c2CC1 | 31.6 µM | 25 |  | 55.9 µM | 34.5 µM |  | 36.8 µM | 35 | 35.6 | 44.7 |  |  |  |  |  |  |  |  |
| CCOC(=O)C1C(c2ccc(Cl)cc2Cl)NC(c2ccc(C)cc2)C(C(=O)OC)S1(=O)=O (configuration not stated) | > 100 µM | > 100 | > 100 | > 100 µM | > 100 µM | > 100 µM |  |  |  | > 100 |  |  |  |  |  |  |  |  |
| c1ccc(-c2c(-c3ccccc3)[n+](Cc3ccc4ccccc4c3)c(-c3ccc(-c4nc5ccccc5s4)cc3)n2Cc2ccc3ccccc3c2)cc1 | 3.79 µM |  | 0.204 | 1.11 µM | 0.626 µM | 1.24 µM | 1.04 µM |  | 0.528 | 0.756 | 0.0945 | 0.0536 | 0.231 | 0.0814 | 0.111 | 0.305 | 0.218 | 0.14 |
| Cc1c2ccnc(C(N)=O)c2c(C)c2c1[nH]c1ccccc12 | 48.2 µM and > 100 µM | > 100 | 19.3 | 16.2 µM and 13.7 µM | 34.8 µM and 32.1 µM | 23.9 µM and 13.9 µM | 27.9 µM and 31.6 µM |  |  |  | 3.9 | 5.02 | 2.62 | 5.94 |  | 3.75 | 5.44 |  |
| CC(=O)O[C@@H](c1nccn1Cc1ccccc1)[C@H]1OC(C)(C)O[C@@H]1[C@H]1COC(C)(C)O1 | > 100 µM |  | > 100 | > 100 µM | > 100 µM | > 100 µM | > 100 µM | > 100 | > 100 |  |  |  |  |  |  |  |  |  |
